Measurements taken from US10646488B2 (Araxes Pharma LLC, priority 2016, dated 2020).

The compounds below were run against T1, KRAS G12C 1-169, his-tagged protein, GDP-loaded (Homo sapiens, UniProt P01116, G12C) (assay: Covalent binding (% modification) to KRAS G12C by mass spectrometry). Settings: covalent binding to KRAS G12C after a ten minute incubation period.
T1 construct: KRAS G12C 1-169, his-tagged protein, GDP-loaded
Also: test concentration or dose not given here.

Compound	Binding %
C=CC(=O)N1CCN(c2nc(N3CC(O)C3)nc3c(F)c(-c4c(O)cccc4F)c(Cl)cc23)[C@@H](C)C1 [Compound 34, 1-((3S)-4-(6-chloro-8-fluoro-7-(2-fluoro-6-hydroxyphenyl)-2-(3-hydroxy-azetidin-1-yl)quinazolin-4-yl)-3-methyl-piperazin-1-yl) prop-2-en-1-one]	++ (++ indicates binding activity from 50 to 90%)
C=CC(=O)N1[C@H](C)CN(c2nc(N3CC(N(C)C)C3)nc3c(F)c(-c4c(O)cccc4F)c(Cl)cc23)C[C@@H]1C [Compound 68, 1-((2R,6S)-4-((R)-6-chloro-2-(3-(dimethylamino)azetidin-1-yl)-8-fluoro-7-(2-fluoro-6-hydroxyphenyl)quinazolin-4-yl)-2,6-dimethyl-piperazin-1-yl) prop-2-en-1-one]	+++ (+++ indicates binding activity greater than 90%)
C=CC(=O)N1CCN(c2nc(N)nc3c(F)c(-c4c(C)ccc5[nH]ncc45)c(Cl)cc23)[C@@H](C)C1 [Compound 10, 1-((3S)-4-(2-amino-6-chloro-8-fluoro-7-(5-methyl-1H-indazol-4-yl)quinazolin-4-yl)-3-methyl-piperazin-1-yl) prop-2-en-1-one]	+++ (+++ indicates binding activity greater than 90%)
C=CC(=O)N1[C@H](C)CN(c2nc(OCCN(CC)CC)nc3c(F)c(-c4c(O)cccc4F)c(Cl)cc23)C[C@@H]1C [Compound 29, 1-((2R,6S)-4-(6-chloro-2-(2-(diethylamino)ethoxy)-8-fluoro-7-(2-fluoro-6-hydroxyphenyl)quinazolin-4-yl)-2,6-dimethyl-piperazin-1-yl) prop-2-en-1-one]	++ (++ indicates binding activity from 50 to 90%)
C=CC(=O)N1CCN(c2nc(N)nc3c(F)c(-c4c(C)ccc5cn[nH]c45)c(Cl)cc23)[C@@H](C)C1 [Compound 5, 1-((3S)-4-(2-amino-6-chloro-8-fluoro-7-(6-methyl-1H-indazol-7-yl)quinazolin-4-yl)-3-methylpiperazin-1-yl)prop-2-en-1-one]	++ (++ indicates binding activity from 50 to 90%)

Same assay, conditions: covalent binding to KRAS G12C after a three minute incubation period

Compound	Binding %
C=CC(=O)N1C[C@H](C)N(c2nc(N3CC(N(C)C)C3)nc3c(F)c(-c4c(F)cccc4OC(C)=O)c(Cl)cc23)C[C@H]1C [Compound 214, 2-(4-((2S,5R)-4-acryloyl-2,5-dimethylpiperazin-1-yl)-6-chloro-2-(3-(dimethylamino)azetidin-1-yl)-8-fluoroquinazolin-7-yl)-3-fluoro-phenyl acetate]	+ (+ indicates binding activity greater than 0% and up to 50%)
C=CC(=O)N1C[C@H](C)N(c2nc(N3CC(N(C)CC)C3)nc3c(F)c(-c4c(O)cccc4F)c(Cl)cc23)C[C@H]1C [Compound 98, 1-((2R,5S)-4-(6-chloro-2-(3-(ethyl(methyl)amino)azetidin-1-yl)-8-fluoro-7-(2-fluoro-6-hydroxyphenyl)quinazolin-4-yl)-2,5-dimethyl-piperazin-1-yl) prop-2-en-1-one]	++ (++ indicates binding activity from 50 to 90%)
[2H]C([2H])([2H])N(C1CN(c2nc(N3C[C@@H](C)N(C(=O)C=C)C[C@@H]3C)c3cc(Cl)c(-c4c(C)ccc5[nH]ncc45)c(F)c3n2)C1)C([2H])([2H])[2H] (atropisomer, axis not shown) [Compound 227, 1-((2R,5S)-4-(6-chloro-2-(3-(bis(triduetero-methyl)amino)azetidin-1-yl)-8-fluoro-7-((S)-5-methyl-1H-indazol-4-yl)quinazolin-4-yl)-2,5-dimethyl-piperazin-1-yl) prop-2-en-1-one]	+ (+ indicates binding activity greater than 0% and up to 50%)
C=CC(=O)N1CCN(c2nc(N3CC(N(CC)CC)C3)nc3c(F)c(-c4c(O)cccc4F)c(Cl)cc23)[C@@H](C)C1 [Compound 174, 1-((3S)-4-(6-chloro-2-(3-(diethylamino)azetidin-1-yl)-8-fluoro-7-(2-fluoro-6-hydroxyphenyl)quinazolin-4-yl)-3-methyl-piperazin-1-yl) prop-2-en-1-one]	+++ (+++ indicates binding activity greater than 90%)
C=CC(=O)N1C[C@H](C)N(c2nc(COCc3ncccc3F)nc3c(F)c(-c4c(O)cccc4F)c(Cl)cc23)C[C@H]1C [Compound 141, 1-((2R,5S)-4-(6-chloro-8-fluoro-7-(2-fluoro-6-hydroxyphenyl)-2-(((3-fluoro-pyridin-2-yl)methoxy)methyl)quinazolin-4-yl)-2,5-dimethyl-piperazin-1-yl) prop-2-en-1-one]	++ (++ indicates binding activity from 50 to 90%)
C=CC(=O)N1C[C@H](C)N(c2nc(N3CC4(CCN(C)C4)C3)nc3c(F)c(-c4c(O)cccc4F)c(Cl)cc23)C[C@H]1C [Compound 190, 1-((2R,5S)-4-(6-chloro-8-fluoro-7-(2-fluoro-6-hydroxyphenyl)-2-(6-methyl-2,6-diazaspiro[3.4]octan-2-yl)quinazolin-4-yl)-2,5-dimethyl-piperazin-1-yl) prop-2-en-1-one]	++ (++ indicates binding activity from 50 to 90%)
[2H]C([2H])([2H])N(C1CN(c2nc(N3C[C@@H](C)N(C(=O)C=C)C[C@@H]3C)c3cc(Cl)c(-c4cc(O)cc5ccccc45)c(F)c3n2)C1)C([2H])([2H])[2H] (atropisomer, axis not shown) [Compound 229]	+ (+ indicates binding activity greater than 0% and up to 50%)
C=CC(=O)N1C[C@H](C)N(c2nc(OCCN3CC(F)(F)C3)nc3c(F)c(-c4c(O)cccc4F)c(Cl)cc23)C[C@H]1C (atropisomer, axis not shown) [Compound 89, 1-((2R,5S)-4-(6-chloro-2-(2-(3,3-difluoroazetidin-1-yl)ethoxy)-8-fluoro-7-((R)-2-fluoro-6-hydroxyphenyl)quinazolin-4-yl)-2,5-dimethyl-piperazin-1-yl) prop-2-en-1-one]	+ (+ indicates binding activity greater than 0% and up to 50%)
C=CC(=O)N1C[C@H](C)N(c2nc(OCCCN(C)C)nc3c(F)c(-c4cc(O)cc5ccccc45)c(C(F)(F)F)cc23)C[C@H]1C [Compound 210, 1-((2R,5S)-4-(2-(3-(dimethylamino)propoxy)-8-fluoro-7-(3-hydroxy-naphthalen-1-yl)-6-(trifluoromethyl)quinazolin-4-yl)-2,5-dimethyl-piperazin-1-yl) prop-2-en-1-one]	+++ (+++ indicates binding activity greater than 90%)
C=CC(=O)N1C[C@H](C)N(c2nc(N3CC(N(C)C)C3)nc3c(F)c(-c4c(O)cccc4F)c(Cl)cc23)C[C@@H]1C [Compound 94, 1-((2S,5S)-4-(6-chloro-2-(3-(dimethylamino)azetidin-1-yl)-8-fluoro-7-(2-fluoro-6-hydroxyphenyl)quinazolin-4-yl)-2,5-dimethyl-piperazin-1-yl) prop-2-en-1-one]	+ (+ indicates binding activity greater than 0% and up to 50%)
C=CC(=O)N1C[C@H](C)N(c2nc(OCCc3ncccn3)nc3c(F)c(-c4c(O)cccc4F)c(Cl)cc23)C[C@H]1C [Compound 198, 1-((2R,5S)-4-(6-chloro-8-fluoro-7-(2-fluoro-6-hydroxyphenyl)-2-(2-(pyrimidin-2-yl)ethoxy)quinazolin-4-yl)-2,5-dimethyl-piperazin-1-yl) prop-2-en-1-one]	+++ (+++ indicates binding activity greater than 90%)
C=CC(=O)N1C[C@H](C)N(c2nc(N3CC4(CCOCC4)C3)nc3c(F)c(-c4c(C)ccc5[nH]ncc45)c(Cl)cc23)C[C@H]1C [Compound 162, 1-((2R,5S)-4-(6-chloro-8-fluoro-7-(5-methyl-1H-indazol-4-yl)-2-(7-oxa-2-azaspiro[3.5]nonan-2-yl)quinazolin-4-yl)-2,5-dimethyl-piperazin-1-yl) prop-2-en-1-one]	+ (+ indicates binding activity greater than 0% and up to 50%)
C=CC(=O)N1C[C@H](C)N(c2nc(OCCN3CC(F)(F)C3)nc3c(F)c(-c4c(C)ccc5cn[nH]c45)c(Cl)cc23)C[C@H]1C [Compound 112, 1-((2R,5S)-4-(6-chloro-2-(2-(3,3-difluoroazetidin-1-yl)ethoxy)-8-fluoro-7-(6-methyl-1H-indazol-7-yl)quinazolin-4-yl)-2,5-dimethyl-piperazin-1-yl) prop-2-en-1-one]	++ (++ indicates binding activity from 50 to 90%)
C=CC(=O)N1C[C@H](C)N(c2nc(N3CC4(CCN(C5CC5)C4)C3)nc3c(F)c(-c4c(C)ccc5[nH]ncc45)c(Cl)cc23)C[C@H]1C [Compound 140, 1-((2R,5S)-4-(6-chloro-2-(6-cyclopropyl-2,6-diazaspiro[3.4]octan-2-yl)-8-fluoro-7-(5-methyl-1H-indazol-4-yl)quinazolin-4-yl)-2,5-dimethyl-piperazin-1-yl) prop-2-en-1-one]	++ (++ indicates binding activity from 50 to 90%)
C=CC(=O)N1C[C@H](C)N(c2nc(N3CC(N(CC)CC)C3)nc3c(F)c(-c4c(O)cccc4F)c(Cl)cc23)C[C@H]1C (atropisomer, axis not shown) [Compound 175, 1-((2R,5S)-4-(6-chloro-2-(3-(diethylamino)azetidin-1-yl)-8-fluoro-7-((S)-2-fluoro-6-hydroxyphenyl)quinazolin-4-yl)-2,5-dimethyl-piperazin-1-yl) prop-2-en-1-one]	+++ (+++ indicates binding activity greater than 90%)
C=CC(=O)N1C[C@H](C)N(c2nc(N3CC(NC)C3)nc3c(F)c(-c4c(C)ccc5cn[nH]c45)c(Cl)cc23)C[C@H]1C [Compound 100, 1-((2R,5S)-4-(6-chloro-8-fluoro-7-(6-methyl-1H-indazol-7-yl)-2-(3-(methylamino)azetidin-1-yl)quinazolin-4-yl)-2,5-dimethyl-piperazin-1-yl) prop-2-en-1-one]	++ (++ indicates binding activity from 50 to 90%)
C=CC(=O)N1C[C@H](C)N(c2nc(N3CC(N(C)C)C3)nc3c(F)c(-c4c(C)ccc5[nH]ncc45)c(Cl)cc23)C[C@H]1C (atropisomer, axis not shown) [Compound 130, 1-((2R,5S)-4-(6-chloro-2-(3-(dimethylamino)azetidin-1-yl)-8-fluoro-7-((R)-5-methyl-1H-indazol-4-yl)quinazolin-4-yl)-2,5-dimethyl-piperazin-1-yl) prop-2-en-1-one]	+++ (+++ indicates binding activity greater than 90%)
